Data taken from article PMC6164518 (Marine Drugs, 2018).

Columns and labels:
Aβ1–42 = target: T1, Aβ1–42 (Homo sapiens, UniProt P05067); experiment: Inhibition of self-induced Aβ1–42 aggregation (ThT fluorescence); format: biochemical; conditions: Aβ1–42 2.5 µM, compound 10 µM; mean ± SD of three experiments
T1 construct: pre-treated Aβ1–42 (GL Biochem Ltd., Shanghai, China) was dissolved in DMSO; purchased GL Biochem Ltd., Shanghai, China
Method: In order to investigate the inhibition of compounds on Aβ1–42 self-aggregation, a ThT-based fluorometric assay was performed. 1,1,1,3,3,3-hexafluoro-2-propanol (HFIP) pre-treated Aβ1–42 (GL Biochem Ltd., Shanghai, China) was dissolved in DMSO to make a 200 µM stock solution. The stock solution was centrifuged at the speed of 13,500 rpm for 10 min. The above supernatant was used for experiments. The tested compounds were dissolved in DMSO at concentrations of 0.8 mM. A screening assay for the tested compounds to inhibit A aggregation was performed by measuring ThT fluorescence emission. Compounds (2 µL) and 2 µL of 200 µM Aβ1–42 were added into 76 µL of phosphate-buffered saline (PBS at pH 7.4) in a 96-well plate. After incubation for 24 h at room temperature, 80 µL of 5 µM of ThT solution (in 50 mM of glycine-NaOH at pH 8.5) was added to the reaction solution. Fluorescence emission was measured at 490 nm with an excitation wavelength of 450 nm on a Tecan Spark multimode microplate reader. […] The fluorescence intensities were compared, and the % inhibition was calculated by the following equation: 100 − [(Fi − Fb)/(Fo − Fb) × 100], where Fi, Fo and Fb are the fluorescence intensities obtained for Aβ aggregation in the presence of inhibitors Aβ1–42 and ThT; in the presence of Aβ1–42 and THT but no inhibitors; and the blanks containing ThT only.

Aβ1–42 and AChE = target: T2, Aβ1–42 and AChE (Electrophorus electricus, UniProt O42275); experiment: Inhibition of AChE-induced Aβ1–42 aggregation (ThT fluorescence); format: biochemical; conditions: Aβ1–42 2.5 µM, AChE 0.2 U/mL, compound 8 µM; mean ± SD of three experiments
T2 construct: HFIP pre-treated Aβ1–42 (GL Biochem Ltd., shanghai, China) was dissolved in DMSO; purchased GL Biochem Ltd. (Aβ1–42)
Method: The stock solution was centrifuged at the speed of 13,500 rpm for 10 min. The above supernatant was used for experiments. […] Fluorescence emission was measured at 490 nm with an excitation wavelength of 450 nm on a Tecan Spark multimode microplate reader.

AChE = tested on: AChE; parameters: method as in PMID 24547899; conditions: read-out: AChE IC50 (reported value); cited from earlier work
Electric eel AChE = target: T3, Electric eel AChE (Electrophorus electricus, UniProt O42275); experiment: biochemical; conditions: AChE from electric eel; mean ± SD from three separate experiments; read-out: IC50 EeAChE
T3 construct: purchased Sigma-Aldrich (Steinheim, Germany)
Method: (§1) The AChE and BChE inhibitory activities of compounds were determined by using a slightly modified Ellman’s method. Electric eel AChE, equine serum BChE, 5,5′-dithiobis(2-nitrobenzoic acid) (DTNB), phosphate buffer solution (PBS, pH 8.0), acetylthiocholine (ATC) iodide, and butyrylthiocholine (BUC) iodide were purchased from Sigma-Aldrich (Steinheim, Germany). […] Enzyme solutions were prepared at 2.0 U/mL in 2-mL aliquots. The assay medium consisted of 10 μL of enzyme, 40 μL of PBS, 20 μL of 0.01 M DTNB, and 10 μL of tested compound. Assayed solutions of tested compounds were pre-incubated with corresponding ChE for 5 min. The reaction was initiated by the addition of 20 μL of 0.01 M substrate (ATC or BUC). The activity was determined by measuring the increase in absorbance at 410 nm at 37 °C in 2-min intervals using Tecan Spark multimode microplate reader (Mannedorf, Switzerland). The percentage of inhibition (I) was calculated from the measured data as follows: I = (Ac − Ai)/Ac × 100%, where Ai and Ac represent the change in the absorbance in the presence of an inhibitor and without an inhibitor, respectively.

equine serum BChE = target: T4, equine serum BChE (Equus caballus, UniProt P81908); experiment: biochemical; conditions: BChE from equine serum; mean ± SD from three separate experiments; read-out: IC50 eqBChE
T4 construct: purchased Sigma-Aldrich (Steinheim, Germany); host or cells: equine serum
Method: as §1

in vitro = conditions: human
Method: Thus, to verify the hepatotoxicity of 1 and 12j, a 3-(4,5-dimethylthiazol-2-yl)-2,5-diphenyltetrazolium bromide (MTT) assay on the human hepatoma cell line (HepG2) was carried out.
The cytotoxicity of selected compounds was evaluated on HepG2 cells. Cells were inoculated into 96-well plates. After incubation for 24 h, the cells were treated with different concentrations of tested compounds for 24 h, and then were incubated with 10 μL of 3-(4,5-dimethylthiazol-2-yl)-2,5-diphenyltetrazolium bromide (MTT) at 37 °C for 2 h. The formazan dye product was measured by the absorbance at 490 nm on a Tecan Spark multimode microplate reader.

T3 sequence (O42275 24-633): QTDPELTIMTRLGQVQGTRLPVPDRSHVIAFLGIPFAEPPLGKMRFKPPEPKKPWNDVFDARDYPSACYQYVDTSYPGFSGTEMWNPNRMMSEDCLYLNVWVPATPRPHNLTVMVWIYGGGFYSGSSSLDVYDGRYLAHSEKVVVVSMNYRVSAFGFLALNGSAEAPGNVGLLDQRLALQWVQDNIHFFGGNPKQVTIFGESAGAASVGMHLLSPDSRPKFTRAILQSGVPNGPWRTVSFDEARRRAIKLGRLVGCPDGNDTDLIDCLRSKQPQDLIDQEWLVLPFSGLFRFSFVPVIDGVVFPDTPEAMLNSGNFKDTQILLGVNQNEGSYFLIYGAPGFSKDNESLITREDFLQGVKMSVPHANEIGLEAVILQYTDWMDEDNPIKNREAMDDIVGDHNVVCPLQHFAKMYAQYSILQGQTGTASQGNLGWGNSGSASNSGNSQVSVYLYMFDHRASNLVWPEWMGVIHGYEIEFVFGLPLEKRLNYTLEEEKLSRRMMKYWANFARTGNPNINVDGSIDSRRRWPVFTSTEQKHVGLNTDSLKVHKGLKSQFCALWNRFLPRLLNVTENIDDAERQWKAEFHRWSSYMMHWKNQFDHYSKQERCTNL
T2 sequence (O42275 24-633): as above
T4 sequence (P81908 whole entry): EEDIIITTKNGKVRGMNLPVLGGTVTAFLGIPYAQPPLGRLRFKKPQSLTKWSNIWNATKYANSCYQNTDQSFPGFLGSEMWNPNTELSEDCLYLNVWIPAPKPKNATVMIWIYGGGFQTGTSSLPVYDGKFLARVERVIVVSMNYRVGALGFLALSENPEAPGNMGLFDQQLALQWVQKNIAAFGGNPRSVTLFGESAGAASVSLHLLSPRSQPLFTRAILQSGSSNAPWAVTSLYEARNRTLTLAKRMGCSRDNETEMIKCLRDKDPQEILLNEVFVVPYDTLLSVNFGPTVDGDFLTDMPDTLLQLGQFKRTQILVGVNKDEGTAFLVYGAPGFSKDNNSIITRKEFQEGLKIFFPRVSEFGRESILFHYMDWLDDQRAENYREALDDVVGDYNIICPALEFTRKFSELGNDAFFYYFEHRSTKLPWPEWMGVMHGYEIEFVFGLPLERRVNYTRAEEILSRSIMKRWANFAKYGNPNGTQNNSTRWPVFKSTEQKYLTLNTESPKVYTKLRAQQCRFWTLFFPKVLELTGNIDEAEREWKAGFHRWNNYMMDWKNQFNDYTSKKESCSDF
T1 sequence (P05067 672-713 limits assumed): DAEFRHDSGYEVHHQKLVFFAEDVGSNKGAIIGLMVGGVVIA

In the case of `COc1c(Br)cc(CC(=O)NCCCCC[N+](C)(C)C)cc1Br` [Compound 1, Pulmonarin B], the “Inhibition of Aβ Aggregation (%) Self-Induced” value (Aβ1–42) is given as 29.78 ± 1.45%, the “Inhibition of Aβ Aggregation (%) AChE-Induced” value (Aβ1–42 and AChE) is given as 27.60 ± 1.96% and the IC50 (AChE) is given as 36 µM. The IC50 (Electric eel AChE) was 37 ± 2.11 µM, the IC50 (equine serum BChE) was 30.7 ± 1.44 µM and the IC50 at 24 h (in vitro) was > 80 µM.
